From ChEMBL document CHEMBL3351582, “A simple, general approach of allosteric coagulation enzyme inhibition through monosulfated hydrophobic scaffolds” (Bioorg Med Chem Lett, 2014)
Activity calls are given as the source filed them. The rule behind the calls is not given here.

Experiments:
[1] = target: T1, Coagulation factor XII (Homo sapiens) (UniProt P00748); assay: Inhibition of human factor 12a assessed as residual activity at 500 uM by spectrophotometric assay
T1 sequence (whole entry): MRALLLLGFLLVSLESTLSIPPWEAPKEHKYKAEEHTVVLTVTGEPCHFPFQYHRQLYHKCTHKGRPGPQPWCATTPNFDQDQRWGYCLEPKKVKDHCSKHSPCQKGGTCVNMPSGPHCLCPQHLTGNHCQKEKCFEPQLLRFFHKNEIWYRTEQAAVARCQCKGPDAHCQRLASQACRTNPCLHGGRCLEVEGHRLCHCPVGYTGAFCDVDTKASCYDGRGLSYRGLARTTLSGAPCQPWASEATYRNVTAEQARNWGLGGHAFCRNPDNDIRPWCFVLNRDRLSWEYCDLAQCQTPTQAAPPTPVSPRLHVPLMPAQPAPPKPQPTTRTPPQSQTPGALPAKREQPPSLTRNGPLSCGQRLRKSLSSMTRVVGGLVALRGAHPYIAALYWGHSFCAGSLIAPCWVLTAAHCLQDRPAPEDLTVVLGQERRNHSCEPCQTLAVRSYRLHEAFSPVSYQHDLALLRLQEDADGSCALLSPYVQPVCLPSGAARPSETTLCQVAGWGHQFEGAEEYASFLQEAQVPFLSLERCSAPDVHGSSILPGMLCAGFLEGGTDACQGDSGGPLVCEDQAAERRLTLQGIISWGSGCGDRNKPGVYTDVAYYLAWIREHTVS

[2] = target: Coagulation factor XI (Homo sapiens) (UniProt P03951); assay: Inhibition of human factor 11a assessed as residual activity at 500 uM by spectrophotometric assay
Coagulation factor XI (Homo sapiens), sequence (P03951 19-387 limits assumed): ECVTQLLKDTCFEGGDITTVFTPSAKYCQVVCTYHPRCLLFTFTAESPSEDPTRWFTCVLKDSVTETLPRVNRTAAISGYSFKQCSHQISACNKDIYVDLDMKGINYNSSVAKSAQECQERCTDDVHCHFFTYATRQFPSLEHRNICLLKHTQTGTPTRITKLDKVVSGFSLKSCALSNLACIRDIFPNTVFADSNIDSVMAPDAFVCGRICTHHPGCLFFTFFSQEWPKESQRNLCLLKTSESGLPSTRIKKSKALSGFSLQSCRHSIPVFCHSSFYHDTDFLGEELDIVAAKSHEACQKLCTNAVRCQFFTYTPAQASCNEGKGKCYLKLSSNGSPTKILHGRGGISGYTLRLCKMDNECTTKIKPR
Coagulation factor XI (Homo sapiens), sequence (P03951 388-625 limits assumed): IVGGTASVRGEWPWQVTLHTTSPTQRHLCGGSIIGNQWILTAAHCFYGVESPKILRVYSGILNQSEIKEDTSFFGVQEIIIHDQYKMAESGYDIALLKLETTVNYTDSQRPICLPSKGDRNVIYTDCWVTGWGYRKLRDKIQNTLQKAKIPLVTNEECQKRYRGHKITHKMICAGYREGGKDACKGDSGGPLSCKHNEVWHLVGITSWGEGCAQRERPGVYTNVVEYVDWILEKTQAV

[3] = target: Prothrombin (Homo sapiens) (UniProt P00734); assay: Inhibition of human thrombin using spectrozyme TH as substrate assessed as residual activity at 500 uM by spectrophotometric assay
[4] = target: T2, Coagulation factor VII (Homo sapiens) (UniProt P08709); assay: Inhibition of human factor 7a assessed as residual activity at 500 uM by spectrophotometric assay
T2 sequence (whole entry): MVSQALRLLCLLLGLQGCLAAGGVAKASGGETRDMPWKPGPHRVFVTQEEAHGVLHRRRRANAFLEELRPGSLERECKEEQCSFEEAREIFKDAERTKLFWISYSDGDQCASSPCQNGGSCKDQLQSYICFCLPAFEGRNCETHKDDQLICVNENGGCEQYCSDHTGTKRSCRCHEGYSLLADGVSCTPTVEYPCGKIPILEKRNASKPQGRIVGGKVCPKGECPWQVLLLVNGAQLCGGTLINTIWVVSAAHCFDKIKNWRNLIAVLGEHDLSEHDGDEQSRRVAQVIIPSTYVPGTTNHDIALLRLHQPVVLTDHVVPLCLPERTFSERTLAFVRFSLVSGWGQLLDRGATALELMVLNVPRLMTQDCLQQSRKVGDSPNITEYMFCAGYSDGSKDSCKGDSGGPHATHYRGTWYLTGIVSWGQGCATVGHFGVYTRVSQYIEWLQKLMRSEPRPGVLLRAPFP

[5] = target: Coagulation factor IX (Homo sapiens) (UniProt P00740); assay: Inhibition of human factor 9a assessed as residual activity at 500 uM by spectrophotometric assay
Coagulation factor IX (Homo sapiens), sequence (P00740 47-191 limits assumed): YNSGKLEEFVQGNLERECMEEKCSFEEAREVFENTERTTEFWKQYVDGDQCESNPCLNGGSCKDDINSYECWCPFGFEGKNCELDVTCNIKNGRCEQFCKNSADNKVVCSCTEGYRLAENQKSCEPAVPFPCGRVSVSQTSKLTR
Coagulation factor IX (Homo sapiens), sequence (P00740 227-461 limits assumed): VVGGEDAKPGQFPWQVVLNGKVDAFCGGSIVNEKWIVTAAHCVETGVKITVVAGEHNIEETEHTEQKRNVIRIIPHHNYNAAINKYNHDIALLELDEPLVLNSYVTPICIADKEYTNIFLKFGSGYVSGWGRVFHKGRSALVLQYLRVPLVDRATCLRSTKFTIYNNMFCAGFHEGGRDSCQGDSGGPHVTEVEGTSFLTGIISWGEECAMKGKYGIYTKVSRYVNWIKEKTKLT

[6] = target: Coagulation factor X (Homo sapiens) (UniProt P00742); assay: Inhibition of human factor 10a assessed as residual activity at 500 uM by spectrophotometric assay
Coagulation factor X (Homo sapiens), sequence (P00742 41-179 limits assumed): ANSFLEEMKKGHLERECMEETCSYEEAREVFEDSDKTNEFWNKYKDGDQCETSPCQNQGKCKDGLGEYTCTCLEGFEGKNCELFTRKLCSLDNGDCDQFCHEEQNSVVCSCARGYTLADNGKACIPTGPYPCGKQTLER
Coagulation factor X (Homo sapiens), sequence (P00742 235-488 limits assumed): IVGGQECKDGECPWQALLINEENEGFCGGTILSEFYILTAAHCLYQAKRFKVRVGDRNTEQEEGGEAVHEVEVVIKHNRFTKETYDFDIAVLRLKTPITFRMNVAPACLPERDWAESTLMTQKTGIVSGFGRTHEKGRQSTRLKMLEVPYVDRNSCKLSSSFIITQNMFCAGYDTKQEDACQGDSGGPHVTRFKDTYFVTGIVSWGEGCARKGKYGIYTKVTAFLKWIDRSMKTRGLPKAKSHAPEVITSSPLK

[7] = tested on: COc1cc2occ(C(=O)OC(C)(C)C)c2cc1OCc1nc2ccc(OS(=O)(=O)O)cc2s1; conditions: Homo sapiens; 400 uM
Description: Non-competitive inhibition of human thrombin using spectrozyme TH as substrate assessed as reduction in substrate Vmax at 400 uM by Michaelis-Menten kinetics

[8] = target: Prothrombin (Homo sapiens) (UniProt P00734); assay: Non-competitive inhibition of human thrombin using spectrozyme TH as substrate assessed as effect on substrate Km at 400 uM by Michaelis-Menten kinetics

Molecule	Activity [1] [%]	Activity [2] [%]	Activity [3] [%]	Activity [4] [%]	Activity [5] [%]	Activity [6] [%]	Vmax [7] [mAU/min/µM]	inhibition [8]
CCOC(=O)c1c(COc2cc3c(C(=O)OCC)coc3cc2OC)[nH]c2ccc(OS(=O)(=O)O)cc12	97	111	102	87	98	34	–	–
CCOC(=O)c1c(C)[nH]c2ccc(OS(=O)(=O)O)cc12	90	114	100	90	98	120	–	–
Cc1nc2ccc(OCc3nc4ccc(OS(=O)(=O)O)cc4s3)cc2s1	97	120	48	102	110	105	–	–
CCOC(=O)c1c(C)[nH]c2ccc(OCc3c(C(=O)OCC)c4cc(OS(=O)(=O)O)ccc4n3C(=O)OC(C)(C)C)cc12	92	0	42	99	98	0	–	–
CCOC(=O)c1c(COc2cc3c(C(=O)OCC)c(Cc4ccccc4)oc3cc2OC)[nH]c2ccc(OS(=O)(=O)O)cc12	100	0	29	109	98	37	–	–
CCOC(=O)c1c(COc2cc3c(C(=O)OCC)c(COc4cc5c(C(=O)OCC)c(C)oc5cc4OC)oc3cc2OC)[nH]c2ccc(OS(=O)(=O)O)cc12	97	16	46	92	109	33	–	–
CCOC(=O)c1c(Cc2ccccc2)oc2cc(OC)c(OCc3nc4ccc(OS(=O)(=O)O)cc4s3)cc12	96	88	108	100	90	90	–	–
Prothrombin (Homo sapiens) (from UniProt P00734)	–	–	–	–	–	–	24.5	–
COc1cc2occ(C(=O)OC(C)(C)C)c2cc1OCc1nc2ccc(OS(=O)(=O)O)cc2s1	100	0	30	98	101	22	–	Active
Cc1nc2ccc(OS(=O)(=O)O)cc2s1	95	52	99	91	94	77	–	–
CCOC(=O)c1c(C)oc2cc(OC)c(OCc3oc4cc(OC)c(OCc5nc6ccc(OS(=O)(=O)O)cc6s5)cc4c3C(=O)OCC)cc12	100	62	104	100	82	98	–	–
